Results as given in US20250230147A1, “LACTAMS AS CBL-B INHIBITORS” (Genentech, Inc., priority 2021, published 2025).
Counter-ions that a name gives are not always drawn.

Tests used:
c-Cbl = c-Cbl (Homo sapiens (Human), UniProt P22681); assay: C-Cbl LCK Ub TR-FRET assay (c-cbl Lck HTRF); assay type: biochemical; details: for (fold-selectivity): C-cbl Lck HTRF IC50 relative to Cbl-b Lck HTRF IC50
Method in brief: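 After the ubiquitination reaction, detection mixture was added and plates incubated 20 min at room temperature before reading. IC50 values were calculated with wells lacking LCK as the low control and DMSO as the high control.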

Cbl-b = Cbl-b (Homo sapiens (Human), UniProt Q13191); assay: Cbl-b LCK Ub TR-FRET assay (Cbl-b Lck HTRF); assay type: biochemical
Sequence of Cbl-b (Q13191 40-426): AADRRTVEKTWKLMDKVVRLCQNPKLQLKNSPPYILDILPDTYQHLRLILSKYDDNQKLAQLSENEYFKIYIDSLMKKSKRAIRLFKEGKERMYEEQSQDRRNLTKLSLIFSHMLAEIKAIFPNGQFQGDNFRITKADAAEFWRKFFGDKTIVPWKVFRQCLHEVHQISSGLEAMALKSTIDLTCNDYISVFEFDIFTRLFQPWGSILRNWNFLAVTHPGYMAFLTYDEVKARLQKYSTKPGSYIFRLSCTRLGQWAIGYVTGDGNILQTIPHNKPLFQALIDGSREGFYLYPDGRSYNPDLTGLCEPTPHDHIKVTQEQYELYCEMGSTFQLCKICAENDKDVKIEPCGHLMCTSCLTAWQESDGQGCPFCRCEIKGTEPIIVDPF
Method in brief: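 TR-FRET (340 nm excitation, 615/665 nm emission) read after adding HA-ubiquitin–UBE2D2 thioester, anti-HA-D2 and streptavidin-Eu. Beforehand, compounds incubated 60 min with biotinylated Cbl-b, then 90 min with His-LCK and ATP (1 mM in 2× mix); IC50 from 10 concentrations, DMSO high and no-LCK low controls.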

Sequence of c-Cbl (P22681 47-435): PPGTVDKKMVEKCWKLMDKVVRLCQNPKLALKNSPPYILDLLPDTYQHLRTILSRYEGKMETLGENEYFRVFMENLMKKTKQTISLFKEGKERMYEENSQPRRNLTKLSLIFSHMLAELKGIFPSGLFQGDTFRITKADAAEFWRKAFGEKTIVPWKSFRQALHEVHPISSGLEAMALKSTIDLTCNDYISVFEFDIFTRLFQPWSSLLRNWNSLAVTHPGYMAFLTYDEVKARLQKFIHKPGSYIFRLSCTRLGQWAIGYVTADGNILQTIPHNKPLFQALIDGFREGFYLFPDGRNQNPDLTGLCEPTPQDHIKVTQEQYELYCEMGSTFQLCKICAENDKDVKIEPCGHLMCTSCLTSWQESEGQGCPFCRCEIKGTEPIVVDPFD

Structure (SMILES)	IC50 (c-Cbl) [nM]	(fold-selectivity) (c-Cbl)	IC50 (Cbl-b) [nM]
Cn1cnnc1[C@@H](F)C1(c2cccc(NC(=O)c3cc(CN4CC(C)(CO)C4)cc(C4CC4)n3)c2)CC(F)(F)C1 [Compound 423, (S)-6-cyclopropyl-N-(3-(3,3-difluoro-1-(fluoro(4-methyl-4H-1,2,4-triazol-3-yl)methyl)cyclobutyl)phenyl)-4-((3-(hydroxymethyl)-3-methylazetidin-1-yl)methyl)picolinamide]	23	(1.0x)	23
Cn1cc(-c2cc(C3(Cc4nncn4C)CCC3)cc(N3Cc4c(cc(CNC5(C)CCC5)cc4C(F)(F)F)C3=O)n2)cn1 [Compound 327, 2-(6-(1-methyl-1H-pyrazol-4-yl)-4-(1-((4-methyl-4H-1,2,4-triazol-3-yl)methyl)cyclobutyl)pyridin-2-yl)-6-(((1-methylcyclobutyl)amino)methyl)-4-(trifluoromethyl)isoindolin-1-one]	12	(1.0x)	12
Cn1cnnc1CC1(c2cccc(N3Cc4c(cc(CNC5(C)CCC5)c(F)c4C(F)(F)F)C3=O)c2)CC(F)(F)C1 [Compound 244, 2-(3-(3,3-difluoro-1-((4-methyl-4H-1,2,4-triazol-3-yl)methyl)cyclo-butyl)phenyl)-5-fluoro-6-(((1-methylcyclobutyl)amino)methyl)-4-(trifluoromethyl)isoindolin-1-one]	14	(0.97x)	15
Cc1cnnn1CC1(c2cccc(N3Cc4c(cc(CNC5(C)CCC5)cc4C(F)(F)F)C3=O)c2)COC1 [Compound 243, 2-(3-(3-((5-methyl-1H-1,2,3-triazol-1-yl)methyl)oxetan-3-yl)-phenyl)-6-(((1-methylcyclobutyl)amino)methyl)-4-(trifluoromethyl)isoindolin-1-one]	47	(1.6x)	29
Cn1cnnc1[C@H](F)C1(c2cccc(N3Cc4c(cc(CN5CC6(C5)CC6(F)F)cc4C(F)(F)F)C3=O)c2)COC1 [Compound 153, (R)-6-((1,1-difluoro-5-azaspiro[2.3]hexan-5-yl)methyl)-2-(3-(3-(fluoro(4-methyl-4H-1,2,4-triazol-3-yl)methyl)oxetan-3-yl)phenyl)-4-(trifluoromethyl)isoindolin-1-one]	60	2.2x	27
Cn1cnnc1[C@@H](F)[C@](C)(F)c1cccc(N2Cc3c(cc(CN4CC(C)(F)C4)cc3C(F)(F)F)C2=O)c1 [Compound 34]	760	2.0x	380
CC(C)[C@H]1CN(C)CCN1Cc1cc(Cl)c2c(c1)C(=O)N(c1cccc(C3(Cc4nncn4C)CC(F)(F)C3)c1)C2 [Compound 281, (S)-4-chloro-2-(3-(3,3-difluoro-1-((4-methyl-4H-1,2,4-triazol-3-yl)methyl)cyclobutyl)phenyl)-6-((2-isopropyl-4-methylpiperazin-1-yl)methyl)isoindolin-1-one]	11	(0.68x)	16
Cn1cnnc1CC1(c2cc(NCC3CCOCC3)nc(N3Cc4c(cc(CNC5(C)CCC5)cc4C(F)(F)F)C3=O)c2)CCC1 [Compound 335, 2-(4-(1-((4-methyl-4H-1,2,4-triazol-3-yl)methyl)cyclobutyl)-6-(((tetrahydro-2H-pyran-4-yl)methyl)amino)pyridin-2-yl)-6-(((1-methylcyclobutyl)amino)methyl)-4-(trifluoromethyl)isoindolin-1-one]	190	(1.0x)	180
CCC1(NCc2cc3c(c(C(F)(F)F)c2)CN(c2cccc(C4(Cc5nncn5C)CC(F)(F)C4)c2)C3=O)CCC1 [Compound 369, 2-(3-(3,3-difluoro-1-((4-methyl-4H-1,2,4-triazol-3-yl)methyl)cyclobutyl)phenyl)-6-(((1-ethylcyclobutyl)amino)methyl)-4-(trifluoromethyl)isoindolin-1-one formate]	15	–	17
Cn1cnnc1[C@@H](F)C1(c2cccc(N3Cc4c(cc(CN5CCC(C)(O)CC5)cc4C(F)(F)F)C3=O)c2)COC1 [Compound 142, (S)-2-(3-(3-(fluoro(4-methyl-4H-1,2,4-triazol-3-yl)methyl)oxetan-3-yl)phenyl)-6-((4-hydroxy-4-methylpiperidin-1-yl)methyl)-4-(trifluoromethyl)isoindolin-1-one]	430	1.9x	230
CCNc1cc(C2(Cc3nncn3C)CC(F)(F)C2)cc(N2Cc3c(cc(CN4CCN(C)C[C@@H]4C(C)C)cc3C(F)(F)F)C2=O)n1 [Compound 236, (S)-2-(4-(3,3-difluoro-1-((4-methyl-4H-1,2,4-triazol-3-yl)methyl)-cyclobutyl)-6-(ethylamino)pyridin-2-yl)-6-((2-isopropyl-4-methylpiperazin-1-yl)methyl)-4-(trifluoromethyl)isoindolin-1-one formate]	8	–	7.1
CC(C)[C@H]1CNCCN1Cc1cc2c(c(C(F)(F)F)c1)CN(c1cccc(C3([C@H](F)c4nncn4C)CCC3)c1)C2=O [Compound 217, 2-(3-(1-((S)-fluoro(4-methyl-4H-1,2,4-triazol-3-yl)methyl)cyclobutyl)phenyl)-6-(((S)-2-isopropylpiperazin-1-yl)methyl)-4-(trifluoromethyl)isoindolin-1-one]	20	1.2x	17
Cn1cnnc1CC1(c2cc(NCCC#N)nc(N3Cc4c(cc(CNC5(C)CCC5)cc4C(F)(F)F)C3=O)c2)CCC1 [Compound 308, 3-((4-(1-((4-methyl-4H-1,2,4-triazol-3-yl)methyl)cyclobutyl)-6-(6-(((1-methylcyclobutyl)amino)methyl)-1-oxo-4-(trifluoromethyl)isoindolin-2-yl)pyridin-2-yl)amino)propanenitrile]	7.5	(0.63x)	12
CC[C@H]1CN(Cc2cc3c(c(C(F)(F)F)c2)CN(c2cccc(C4(Cc5nncn5C)CC(F)(F)C4)c2)C3=O)CCN1C [Compound 421, (S)-2-(3-(3,3-difluoro-1-((4-methyl-4H-1,2,4-triazol-3-yl)methyl)cyclobutyl)phenyl)-6-((3-ethyl-4-methylpiperazin-1-yl)methyl)-4-(trifluoromethyl)isoindolin-1-one]	11	(0.72x)	15
Cn1cnnc1[C@H](F)C1(c2cccc(N3Cc4c(cc(CN5CCCC5)cc4C(F)(F)F)C3=O)c2)CC(F)(F)C1 [Compound 395, (R)-2-(3-(3,3-difluoro-1-(fluoro(4-methyl-4H-1,2,4-triazol-3-yl)methyl)cyclobutyl)phenyl)-6-(pyrrolidin-1-ylmethyl)-4-(trifluoromethyl)isoindolin-1-one]	110	(1.0x)	110
Cn1cnnc1[C@@H](F)C1(c2cccc(N3Cc4c(cc(CN5CC6CC5C6)cc4C(F)(F)F)C3=O)c2)COC1 [Compound 87, (S)-6-((2-azabicyclo[2.1.1]hexan-2-yl)methyl)-2-(3-(3-(fluoro(4-methyl-4H-1,2,4-triazol-3-yl)methyl)oxetan-3-yl)phenyl)-4-(trifluoromethyl)isoindolin-1-one]	3100	2.6x	1200
Cn1cnnc1[C@@H](F)C1(c2cccc(N3Cc4c(cc(CN5CC[C@@H](F)C5)cc4C(F)(F)F)C3=O)c2)COC1 [Compound 81, 2-(3-(3-((S)-fluoro(4-methyl-4H-1,2,4-triazol-3-yl)methyl)oxetan-3-yl)phenyl)-6-(((R)-3-fluoropyrrolidin-1-yl)methyl)-4-(trifluoromethyl)isoindolin-1-one]	750	2.8x	270
Cn1cnnc1[C@@H](F)C1(c2cccc(N3Cc4c(cc(CNC5(C)CCC5)cc4C(F)(F)F)C3=O)c2)CC(F)(F)C1 [Compound 465, (S)-2-(3-(3,3-difluoro-1-(fluoro(4-methyl-4H-1,2,4-triazol-3-yl)methyl)cyclobutyl)phenyl)-6-(((1-methylcyclobutyl)amino)methyl)-4-(trifluoromethyl)isoindolin-1-one]	13	(0.90x)	14
CC(C)[C@@H]1CN(Cc2cc3c(c(C(F)(F)F)c2)CN(c2cccc(C4([C@@H](F)c5nncn5C)COC4)c2)C3=O)CCN1 [Compound 92]	24	1.2x	20
COC[C@@H]1CCCN1Cc1cc2c(c(C(F)(F)F)c1)CN(c1cccc(C3([C@@H](F)c4nncn4C)COC3)c1)C2=O [Compound 159, 2-(3-(3-((R)-fluoro(4-methyl-4H-1,2,4-triazol-3-yl)methyl)oxetan-3-yl)phenyl)-6-(((S)-2-(methoxymethyl)pyrrolidin-1-yl)methyl)-4-(trifluoromethyl)isoindolin-1-one]	1200	3.4x	350
CO[C@@H]1CCN(Cc2cc3c(c(C(F)(F)F)c2)CN(c2cccc(C4([C@@H](F)c5nncn5C)COC4)c2)C3=O)C1 [Compound 47, 2-(3-(3-((R)-fluoro(4-methyl-4H-1,2,4-triazol-3-yl)methyl)oxetan-3-yl)phenyl)-6-(((R)-3-methoxypyrrolidin-1-yl)methyl)-4-(trifluoromethyl)isoindolin-1-one]	180	1.8x	100
CNCc1cc2c(c(C(F)(F)F)c1)CN(c1cccc(C3([C@@H](F)c4nncn4C)COC3)c1)C2=O [Compound 212, (R)-2-(3-(3-(fluoro(4-methyl-4H-1,2,4-triazol-3-yl)methyl)oxetan-3-yl)phenyl)-6-((methylamino)methyl)-4-(trifluoromethyl)isoindolin-1-one]	130	1.7 x	75
